The results in this text go back to patent US12089595B2, “Pseudomonas strains and their metabolites to control plant diseases” (T3 Bioscience, Inc., priority 2020, dated 2024).

In brackets after ≈: the same amount, converted by molar mass. Entries after “also recorded” stand apart in the source; their conditions may differ.

One data set relates to Septoria tritici. In words: microbe, parasite or virus in culture. The format is cell-based. The following applies: Zymoseptoria tritici, 144 h.
The subject of another data set is Ea. In words: Bioactive fractions tested against Ea. The format is cell-based, Erwinia amylovora. The following applies: crude extracts 100 μg/mL; flash-RejuAgro A 20 μg/mL; HPLC-RejuAgro A 10 μg/mL. The protocol:
Two assays were used for the antimicrobial test of 0617-T307 cell broth and metabolites. One is plate diffusion assay and the other one is microplate assay. LB plate was used for the plate diffusion assay of the antimicrobial activity of RejuAgro A containing fractions and cell broths against E. amylovora (Table 3).
The bioactive fractions (crude extracts, 100 μg/mL; flash-RejuAgro A, 20 μg/mL; HPLC-RejuAgro A, 10 μg/mL) were tested against strains 0617-T307, Ea and Xac.

Data set [1] relates to Xanthomonas oryzae pv. oryzicola (Xon507). Description: microbe, parasite or virus in culture. Type of data set: cell-based. Particulars: 44 h, read-out: Inhibition zone.
A further data set deals with R. solanacearum K60. In words: microbe, parasite or virus in culture. Type of data set: cell-based. The following applies: Ralstonia solanacearum, K60, read-out: Diameter of the zone of inhibition.
A further data set has as its system Venturia inaequalis. In words: Antifungal assay on amended PDA plates. The format is cell-based. The protocol: The fungus Venturia inaqualis that causes apple scab was maintained on PDA agar in the dark at room temperature (˜24° C.). A mixture of conidia and mycelia suspension (in 0.01 M PBS) was harvested from PDA (Potato dextrose agar). Ten μL the conidia and mycelia suspension were dropped onto biocontrol bacteria, RejuAgro A, or RejuAgro A amended plates. The control was PDA plates without the addition of the biocontrol bacteria or RejuAgro A or B. […]

The next data set in a line: Solubility in solvents. Type of data set: physicochemical. The following applies: methanol, chloroform. The protocol: Preparative HPLC (Prep-HPLC) purification of the fraction 3840 and 5054 lead to the discovery of 15 mg yellow colored compound RejuAgro A (Rt17.5) and 103.3 mg dark-green colored compound RejuAgro B, respectively. […] The structures of the two compounds have been investigated by High resolution mass spectrometry (HR-MS), infrared (IR), Ultraviolet (UV), 1D and 2D Nuclear magnetic resonance (NMR) as well as X-ray crystal structure analysis.

The next data set concerns Colletotrichum dematium. Description: microbe, parasite or virus in culture. Type of data set: cell-based. Particulars: 144 h.
The test system of data set [2] is Fusarium oxysporum f. sp. Melonsis. Description: microbe, parasite or virus in culture. Type of data set: cell-based. The following applies: 144 h.
Data set [3] concerns the other soft pathogenetic bacteria (Pectobacterium, Dickeya dadantii). Description: MIC antimicrobial assay. Type of data set: cell-based.
Data set [4] concerns Phytophthora infestans Pi 1306. In words: microbe, parasite or virus in culture. The format is cell-based.
A short description of data set [5]: Stability of RejuAgro A in the culture (LCMS). The following applies: room temperature; 40-h culture of 0617-T307 in YME; tested by LCMS. Type of data set: physicochemical. The protocol: RejuAgro A can be present and stable in the culture at room temperature for at least 4 weeks, as tested by LCMS for 40-h culture obtained by growing 0617-T307 in YME media on a shaker at 16° C. and 220 rpm.

In data set [6] the test system is Liberibacter crescens BT-1. Description: microbe, parasite or virus in culture. The format is cell-based.
In another data set the test system is Xac. In words: Bioactive fractions tested against Xac. Particulars: crude extracts 100 μg/mL; flash-RejuAgro A 20 μg/mL; HPLC-RejuAgro A 10 μg/mL. Type of data set: cell-based, Xanthomonas axonopodis pv. citri.
Another data set relates to Magnaporthe oryzae. In words: microbe, parasite or virus in culture. The format is cell-based. Particulars: Pyricularia oryzae, 144 h.
For data set [7], the system named is Xanthomonas axonopodis pv. citri-Miami XC2002-00010. Description: MIC antimicrobial assay (CLSI, 96 well plates). The format is cell-based.
In data set [8] the test system is Phytophthora infestans Pi 88069. Description: microbe, parasite or virus in culture. The format is cell-based.
For data set [9], the system named is Mycosphaerella fijiensis 10CR-25. In words: Antimicrobial effect in PDA agar medium (6-well plate). The format is cell-based. The protocol:
The antimicrobial effect of RejuAgro A on Mycosphaerella fijiensis was examined by adding final concentrations of 60 and 600 μg/mL of HPLC purified RejuAgro A respectively into the PDA agar medium. A 480 μL of 0.5 mg/mL or 5 mg/mL RejuAgro A was added into 3.52 mL of PDA in a well of a 6-well plate to make the final concentration of RejuAgro A at 60 (FIG. 12, middle well (panel A)) and 600 μg/mL (FIG. 12, left well (panel B)) respectively. The plate was gently shaken to let the compound dissolved.

Data set [10] has as its system Xanthomonas citri pv. citri citrange (XW19). Description: Paper disc inhibition zone on PSG agar plates. Particulars: 44 h, read-out: Inhibition zone.
The subject of a further data set is P. infestans. Description: microbe, parasite or virus in culture. Type of data set: cell-based. Particulars: Phytophthora infestans.
Data set [11] relates to Ralstonia solanacearum K60. In words: microbe, parasite or virus in culture. Type of data set: cell-based. The following applies: K60, Ralstonia solanacearum K60 (bacterial wilt).
Data set [12] concerns Ralstonia solanacearum Pss4. Description: microbe, parasite or virus in culture. Type of data set: cell-based. Particulars: PSS4, Ralstonia solanacearum Pss4 (bacterial wilt).
The next data set has as its system E. amylovora Ea110. Description: Field assay on apple trees in the orchard. The format is in vivo, Erwinia amylovora. Particulars: apple orchard 2019; bacteria at 5×10^8 CFU/mL; Ea110 5×10^6 CFU/mL; water control 32.9%. From the text: For the field assay, biological control bacteria (0617-T307, 0118-T319, 0318-T327, 0418-T328; see Table 2) that produce RejuAgro A were applied on the flowers of the apple trees in the orchard on May 5th and May 6th of 2019 (40% and 70% bloom of apple flowers) at the concentration of 5×10^8 CFU/mL. The bacterial pathogen E. amylovora Ea110 was inoculated on May 7th (90% bloom), at the concentration of 5×10^6 CFU/mL. […] Compared with streptomycin, the biocontrol bacteria that produce RejuAgro A have similar or better efficacy on controlling fire blight in the apple orchards.

On to `CSC1=C(C)C(=O)C(=O)NC1=O` [RejuAgro A], for which the MIC is 100 µg/mL (≈ 540 µM) in the data set with Septoria tritici; 80 µg/mL (≈ 432 µM) in the data set on Venturia inaequalis (Venturia inaequalis (Apple scab)); 50 µg/mL (≈ 270 µM) against Colletotrichum dematium; 100 µg/mL (≈ 540 µM) in [2]; 20 to 40 µg/mL (≈ 108 to 216 µM) in [3]; 40 µg/mL (≈ 216 µM) in data set [4]. Also, the MIC came out at 2.5 µg/mL (≈ 13.5 µM) in [6] (Liberibacter crescens, BT1, read-out: minimal inhibitory concentration (MIC)); 75 µg/mL (≈ 405 µM) against Magnaporthe oryzae; 5 µg/mL (≈ 27 µM) in data set [7]; 40 µg/mL (≈ 216 µM) in data set [8]; 600 µg/mL (≈ 3240 µM) in data set [9] (Pseudocercospora fijiensis, 10CR25, Mycosphaerella fijiensis 10CR-25 (black sigatoka of Banana)). In addition, the “inhibition of growth of Ea” value with Ea is “almost abolish the growth”. In addition, the zone of inhibition at 5.5 µg/mL stood at 2.7 ± 0.6 mm in data set [1] and 0 mm in data set [10]. For the same compound, the zone of inhibition at 11.1 µg/mL came out at 5 ± 1 mm in [1] and 0 mm in data set [10]. Besides, the zone of inhibition at 22.1 µg/mL was 7.3 ± 1.5 mm in [1] and 0 mm in [10]. The zone of inhibition at 33.2 µg/mL in data set [1] was determined as 8.3 ± 1.5 mm; in data set [10] it was 0 mm. The zone of inhibition at 55.4 µg/mL in data set [1] is 9.3 ± 0.6 mm; in [10], 2.3 ± 0.6 mm. In addition, the zone of inhibition at 110.7 µg/mL turned out to be 13.3 ± 1.2 mm in [1] and 2.7 ± 1.2 mm in data set [10]. Moreover, the zone of inhibition at 2000 µg/mL in the data set on R. solanacearum K60 was determined as 4 mm. The “growth of V. inaequalis on PDA plates” value with Venturia inaequalis (40-80 μg/mL in PDA plate, day 14 (figure)) is “can inhibit the growth; also recorded: cannot grow”. Besides, the inhibition at 80 µg/mL in the data set with Venturia inaequalis (Venturia inaequalis) worked out at 100%. Also, in the data set “Solubility in solvents”, the “solubility in methanol and chloroform” value was “can be dissolved”. Also, in [5], the “present and stable in the culture” value is listed as “at least 4 weeks”. For the same compound, the “growth of L. crescens” value is recorded as “partial inhibition of growth” in data set [6] (1 mg/L) and “inhibition of growth” in data set [6] (2.5 mg/L, for 16 days). In addition, the “growth of L. crescens BT1” value in [6] (BM7 medium at 28° C., 10 mg/L, 20 mg/L, and 40 mg/L) is given as “inhibition of growth”. For the same compound, the “inhibition of growth of Xac” value with Xac is on record as “almost abolish the growth”. Also, the “growth of M. fijiensis on PDA agar” value was “growth” in data set [9] (60 μg/mL) and “complete inhibition; also recorded: inhibitory growth” in data set [9] (600 μg/mL, two weeks post-inoculation). Testing at 40 µg/mL in the data set on P. infestans gave an inhibition of 100%.
On to `[H]/N=C(/N)N[C@H]1[C@H](O)[C@@H](O)[C@H](O[C@@H]2O[C@@H](C)[C@](O)(C=O)[C@H]2O[C@@H]2O[C@@H](CO)[C@H](O)[C@@H](O)[C@@H]2NC)[C@@H](N/C(N)=N\[H])[C@@H]1O` [Streptomycin, reference compound], for which the figures for the MIC in data set [11], in data set [12] and in [7] were 12.5 µg/mL (≈ 21.5 µM), 12.5 µg/mL (≈ 21.5 µM) and 0.16 µg/mL (≈ 0.275 µM), respectively. Also, the zone of inhibition at 100 µg/mL in the data set with R. solanacearum K60 worked out at 15 mm. Besides, the “percentage of diseased flower clusters” value with E. amylovora Ea110 was 13.3%.

Broadly, the inhibition is the change of the read-out against control, counted positive when it falls. Higher therefore signals strong suppression.
